Measurements published in patent publication US20250204535A1, “Rodenticide” (priority 2022, published 2025).
Where no end group is shown, it is not given here.

Legend:
[1] = system: Neonatal rat cardiomyocytes; assay: Screening synthetic peptides for alterations to rat cardiomyocyte beat rates; type: cell-based
Description: (§1) The baseline beat rate of neonatal rat and human IPSC-derived cardiomyocytes to be treated with the three synthetic fractions were determined by video microscopy of each well in triplicate using a microscope camera. Average beats/min were calculated from the triplicate readings of three separate wells (n=9). Aliquots of each peptide were taken to treat neonatal rat cardiomyocyte cells at doses of 100, 10, 1 and 0.1 μg/ml. Cells were returned to a humidified incubator at 37° C., 5% CO2 for 2 h. After 2 h the beat rate of the treated cardiomyocyte cells was reassessed using the same method used to obtain the pre-dosing beat data. This process was repeated 24 h after the addition of the synthetic peptides.

[2] = system: Neonatal rat cardiomyocytes; assay: Screening synthetic peptides for thermal stability (rat cardiomyocyte beat rate after heating at 100° C.); type: cell-based; conditions: peptide heated to 100° C.
Description: Thermal stability of the three designed synthetics peptides was investigated. The baseline beat rate of neonatal rat cardiomyocytes to be treated with the synthetic fractions were determined by video microscopy of each well in triplicate using a microscope camera. Average beats/min were calculated from the triplicate readings of three separate wells (n=9). Aliquots of each peptide were heated in a heat block at 100° C. before being used to treat rodent cardiomyocyte cells at doses of 100, 10, 1 and 0.1 μg/ml. Cells were returned to the incubator at 37° C., 5% CO2 for 2 h. After 2 h the beat rate of the treated cardiomyocyte cells was reassessed using the same method used to obtain the pre-dosing beat data. This process was repeated 24 h after the addition of the synthetic peptides. The data of the fold changes in cardiomyocyte beat rate following treatment with the heated synthetic fractions were compared to previously obtains fold-changes in beat rate of the unheated synthetic peptides to assess their thermal stability.

[3] = system: Human IPSC-derived cardiomyocytes; assay: Screening synthetic peptides for alterations to human IPSC-derived cardiomyocyte beat rates; type: cell-based; conditions: 2 h; dose not stated in the sentence (no increase at 0.1, 1 and 10 μg/ml)
Description: as §1

[4] = Caco-2 permeability assay (bi-directional); conditions: human; for recovery at 120 min, 100 μM / recovery at 120 min: Caco-2, pH 7.4, Mean % Recovery; for recovery at 120 min: positive control
Description: (§2) Cells were seeded on to Millipore Multiscreen Transwell plates at 1×10^5 cells/cm^2. The cells were cultured in DMEM and media was changed every two or three days. On day 20, the permeability study was performed. […] On the day of the assay, the monolayers were prepared by rinsing both basolateral and apical surfaces twice with Hanks Balanced Salt Solution (HBSS) at the desired pH warmed to 37° C. Cells were then incubated with HBSS at the desired pH in both apical and basolateral compartments for 40 min to stabilise physiological parameters.
(§3) The fluorescent integrity marker lucifer yellow was also included in the dosing solution. Analytical standards were prepared from test compound water dilutions and transferred to buffer, maintaining a ≤1% v/v water concentration. Assay buffer was composed of supplemented HBSS pH 7.4.
(§4) For assessment of apical to basolateral (A2B) permeability, HBSS was removed from the apical compartment and replaced with test compound dosing solution. The apical compartment insert was then placed into a companion plate containing fresh buffer (containing ≤1% v/v Water). For assessment of B2A permeability, HBSS was removed from the companion plate and replaced with test compound dosing solution. Fresh buffer (containing ≤1% v/v Water) was added to the apical compartment insert, which was then placed into the companion plate.
(§5) At 120 min, the apical compartment inserts and the companion plates were separated, and apical and basolateral samples diluted for analysis. Test compound permeability was assessed in duplicate. Compounds of known permeability characteristics were run as controls on each assay plate.
(§6) Test and control compounds were quantified by LC-MS/MS cassette analysis using a 7-point calibration with appropriate dilution of the samples. Cyprotex generic analytical conditions were used. The starting concentration (CO) was determined from the dosing solution and the experimental recovery calculated from CO and both apical and basolateral compartment concentrations.
(§7) The integrity of the polarised cell monolayers throughout the experiment was checked by monitoring lucifer yellow permeation using fluorometric analysis. Permeation of this paracellular marker is low if monolayers have not been damaged. […] If this was not the case, then the result from the affected monolayer was excluded.
(§8) The determined concentration (nM≡pmol/mL) of each test sample receiver well is multiplied by the volume of the receiver compartment (apical=0.09 mL, basolateral=0.210 mL) to calculate the amount (pmol) of probe substrate permeating the monolayer.
(§9) Where dQ/dt is the rate of permeation of the drug across the cells, C0 is the donor compartment concentration at time zero and A is the area of the cell monolayer. C0 was obtained from analysis of the dosing solution.
(§10) An efflux ratio (ER) was calculated from mean A to B and B to A data. This is derived from:
(§11) Percentage recovery (mass balance) of the test compound or positive control substrate was calculated by dividing the sum of the amount (pmol) in the receiver and donor compartments post-incubation by the amount in the initial donor solution at time zero (C0) and expressing as a percentage.
(§12) The insert was inserted into the well of a plate to form an Apical chamber (above cells) and basolateral chamber (below cells), with a permeable membrane between the two layers. Compound was then added to either the apical or basolateral chamber and the passage of it monitored into the other chamber. Transfer of the test compound from the apical to basolateral chamber was indicative of cellular uptake, simulating transition of the compound from the intestinal lumen to the bloodstream by uptake receptors (Direction A). […] An Efflux ratio was then calculated from the values obtained for A2B and B2A transmission.

Caco-2 cells = assay: Caco-2 permeability assay (bi-directional); conditions: for Papp Mean / Papp Rep 1 / Papp Rep 2: 120 min, pH 7.4
Description: as §2, §3, §4, §5, §6, §7, §8, §9, §10, §11, §12

[5] = known characteristic of control compound; cited from earlier work

In the case of LKCHKLIPIAWKTK [Synthetic peptide 3], the “fold-increases to beat rate, rat cardiomyocytes” value ([1]; 100 μg/ml, 2 h) was “three-fold”, the “peak increases in rat neonatal cardiomyocyte beat rates” value ([1]; peak over 0.1-100 μg/ml) was 3 fold and the “increases to beat rate, rat cardiomyocytes” value ([1]; three lower tested concentrations, 2 h) was “around two-fold”. The “maximum fold-increase to beat rate following heating” value [2] was 2.5 fold.
With LKCHKLVPPVWKT [Synthetic peptide 1] the “increase to the beat rate of human cardiomyocytes over pre-dosing beat rate” value [3] was 1.5 fold, the efflux ratio at 120 min, 100 μM ([4]; Caco-2, pH 7.4) was 0.137 and the recovery at 120 min, 100 μM ([4]; A2B) was 45.5%. The recovery at 120 min, 100 μM ([4]; B2A) was 96.6%, the “toxicity to the Caco-2 cells (lucifer yellow monolayer integrity)” value (Caco-2 cells; 100 μM) was “not observed” and the “transporter substrate assessment from the efflux ratio” value (Caco-2 cells; 100 μM, efflux ratio 0.137) was “not a substrate for efflux transporters but could be a possible substrate for uptake transporters”. For the same compound, the “Papp Mean” value (Caco-2 cells; A2B, 100 μM) was 4.60 ×10^−6 cms^−1, the “Papp Rep 1” value (Caco-2 cells; A2B, 100 μM) was 6.48 ×10^−6 cms^−1 and the “Papp Rep 2” value (Caco-2 cells; A2B, 100 μM) was 2.73 ×10^−6 cms^−1. The “Papp Mean” value (Caco-2 cells; B2A, 100 μM) was 0.633 ×10^−6 cms^−1, the “Papp Rep 1” value (Caco-2 cells; B2A, 100 μM) was 0.681 ×10^−6 cms^−1 and the “Papp Rep 2” value (Caco-2 cells; B2A, 100 μM) was 0.584 ×10^−6 cms^−1.
For `Cc1cc(=O)n(-c2ccccc2)n1C` [Antipyrine, antipyrine], the Papp A→B at 120 min ([4]; Caco-2, pH 7.4) was 47.1 ×10⁻⁶ cm/s, the Papp B→A at 120 min ([4]; Caco-2, pH 7.4) was 39.6 ×10⁻⁶ cm/s and the efflux ratio at 120 min ([4]; Caco-2, pH 7.4) was 0.84. For the same compound, the recovery at 120 min ([4]; A2B) was 90.5%, the recovery at 120 min ([4]; B2A) was 87.8% and the “Papp Rep 1” value (Caco-2 cells; A2B, positive control) was 47.2 ×10^−6 cms^−1. The “Papp Rep 2” value (Caco-2 cells; A2B, positive control) was 46.9 ×10^−6 cms^−1, the “Papp Rep 1” value (Caco-2 cells; B2A, positive control) was 38.0 ×10^−6 cms^−1 and the “Papp Rep 2” value (Caco-2 cells; B2A, positive control) was 41.1 ×10^−6 cms^−1. The human absorption [5] was 97%.
